In PubChem BioAssay (NCI):
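Exposure lasted 48 hours, with cells grown in 96-well plates and compounds tested at five concentrations. GI50: concentration for 50% inhibition of growth. TGI: concentration producing complete growth inhibition.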

Test system: OVCAR-8 ovarian
Experiment: inhibition of tumour cell growth, NCI panel, 48 h

Row | SMILES | TGI [µM] | GI50 [µM]
1 | CCOC(=O)c1c(CN2CCCC2)n(-c2ccccc2)c2cc(Br)c(O)cc12 | 49.1 | –
2 | COc1cccc(Nc2nc(-c3cccs3)nc3cc(OC)c(OC)cc23)c1 | 78.5 | –
3 | Nn1c(-c2ccccc2)n[nH]c1=O | > 100 | –
4 | Nn1c(Nc2ccc(S(=O)(=O)Nc3ncccn3)cc2)nnc(/C=C/c2c(O)ccc3ccccc23)c1=O | > 100 | –
5 | Cc1cc(-c2nc3ccc(F)cc3s2)ccc1NC(=O)[C@H](C)N | 27.3 | –
6 | C=CC1(CC/C(=C\[N+](=O)[O-])c2ccc(OC)c(OC)c2)OCC(C)(C)CO1 | 36.9 | –
7 | Cc1cc(Nc2ccc(S(=O)(=O)O)c3cc(S(=O)(=O)O)cc(S(=O)(=O)O)c23)c2ccccc2n1 | > 100 | –
8 | Cc1cc(C)nc(NS(=O)(=O)c2ccc(NC(=O)c3ccc4nc5ccccc5c(Nc5ccc(S(N)(=O)=O)cc5)c4c3)cc2)n1 | > 100 | –
9 | CC1(C(=O)O)CCC2(C)CCC3(C)C(=CC(=O)C4C5(C)CCC(O)C(C)(C)C5CCC43C)C2C1 (stereo unspecified) | > 100 | –
10 | NS(=O)(=O)c1nnc(NC(=O)Nc2ccc(Cl)c(Cl)c2)s1 | 49.9 | –
11 | COC(=O)c1c(C)nc2c1cc(O)c1[nH]c(C)c(C)nc12 | > 100 | –
12 | Cn1c2ccc3cc2c(=S)c2cc(ccc21)OCCOCCOCCOCCOCCOCCO3 | > 10 | –
13 | O=[N+]([O-])c1cc(C=NC23CC4CC(CC(C4)C2)C3)ccc1Cl | > 90.9 | –
14 | COc1cc(S(=O)(=O)Nc2nc(-c3ccc(N4C(=O)C(CC(=O)O)SC4c4cccs4)cc3)cs2)ccc1Cl (stereo unspecified) | > 100 | –
15 | CCCCCC1=CC(=O)C1(Cl)Cl | 34 | –
16 | CC(=O)N(C(=O)CC(=O)N1N=C(c2ccccc2)C(N=Nc2ccccc2[N+](=O)[O-])C1=O)c1ccc(Cl)cc1 (stereo unspecified) | > 10 | –
17 | Oc1ccccc1CNCc1nc2ccccc2[nH]1 | > 100 | –
18 | COc1ncc(/C=C2\OC(=O)c3ccccc32)c(OC)n1 | > 100 | –
19 | CC(=O)Nn1c(=S)[nH]c2ccccc21 | > 100 | –
20 | C[C@]12CCC3C4=C(CCC3C1CCC2=O)C(=O)[C@H]1O[C@H]1C4=O (stereo partly specified) | 5.59 | –
21 | CCCCOC(=O)Nc1ccc(S(=O)(=O)Nc2ccccc2Cl)cc1 | 40 | –
22 | O=[N+]([O-])c1ccc(Cl)cc1N/N=C/c1ccnc2ccccc12 | > 100 | –

Row | SMILES | TGI [µM] | GI50 [µM]
23 | CC(C)c1cc2c(cc1S(=O)(=O)O)[C@@]1(C)CCC[C@@](C)(C(=O)O)C1CC2 (stereo partly specified) | > 100 | –
24 | N#CC(Cc1ccccc1)N(CCC1=CCCCC1)C(c1ccccc1)c1ccccc1 (stereo unspecified) | > 100 | –
25 | C/C(=C\CBr)CCC(Br)C(C)(C)Br (stereo unspecified) | > 100 | –
26 | C#CCn1c(=O)c2ccccc2n(CC#C)c1=O | > 10 | –
27 | [N-]=[N+]=NC(c1ccccc1)(c1ccccc1)c1ccccc1 | 35.1 | –
28 | CC(=O)c1c2c(c3ccccc3c1O)O[C@@H]1OCC[C@H]21 | > 100 | –
29 | C(=C(c1ccc(OC2CCCCO2)cc1)c1ccc(OC2CCCCO2)cc1)c1ccccc1 (stereo unspecified) | 2.64 | –
30 | CC(=O)Oc1cccc2c1C(=O)CCCC2 | > 100 | –
31 | O=C(c1ccccn1)C1(N2CCCCC2)CCCCC1 | > 100 | –
32 | CCN(CC)C(=S)N/N=C/c1cc([N+](=O)[O-])ccc1O | 45.3 | –
33 | COc1ccc(CN2C(=O)/C(=C\c3cc(OC)c(OC)c(OC)c3)c3ccccc32)cc1 | > 100 | 3.05
34 | N[C@@H](CCC(=O)NCP(=O)(O)O)C(=O)O | > 100 | –
35 | CCC(=O)NC(Nc1cc(C)on1)(C(F)(F)F)C(F)(F)F | > 100 | –
36 | CCC(=O)NCC1CCCN2CCCCC12 (stereo unspecified) | > 100 | –
37 | Nc1nc(-c2ccccc2)nc2oc(-c3cccs3)nc12 | > 100 | –
38 | S=C(N/N=C(/c1ccccc1)c1ccccn1)N(Cc1ccccn1)Cc1ccccn1 | 1.13 | –
39 | Cc1oc2c(cc(O)c3cc(O)ccc32)c2cccc1-2 | > 100 | –
40 | O=C(OCc1ccccc1)N1CCNCCN(C(=O)OCc2ccccc2)CCNCC1 | > 100 | –
41 | O=C(Cc1ccc(O)c(O)c1)NCc1c[nH]c2ccccc12 | > 100 | –
42 | COc1ccc(-n2c(C)nc3ccc(NC(=S)Nc4ccccc4)cc3c2=O)cc1 | > 100 | –
43 | O=C(NCc1ccccc1)c1n[nH][nH]c1=O | > 100 | –
44 | COc1cccc(C2SC(N)=Nc3c2c(C)nn3C(=O)c2ccccc2O)c1 (stereo unspecified) | > 10 | –

Test system: T-47D breast
Experiment: inhibition of tumour cell growth, NCI panel, 48 h

Row | SMILES | TGI [µM] | GI50 [µM]
45 | CCOC(=O)c1c(CN2CCCC2)n(-c2ccccc2)c2cc(Br)c(O)cc12 | 47 | –
46 | COc1cccc(Nc2nc(-c3cccs3)nc3cc(OC)c(OC)cc23)c1 | > 100 | –
47 | Nn1c(-c2ccccc2)n[nH]c1=O | > 100 | –
48 | Nn1c(Nc2ccc(S(=O)(=O)Nc3ncccn3)cc2)nnc(/C=C/c2c(O)ccc3ccccc23)c1=O | 96.8 | –
49 | Cc1cc(-c2nc3ccc(F)cc3s2)ccc1NC(=O)[C@H](C)N | > 37.4 | –
50 | C=CC1(CC/C(=C\[N+](=O)[O-])c2ccc(OC)c(OC)c2)OCC(C)(C)CO1 | 33.2 | –
51 | Cc1cc(Nc2ccc(S(=O)(=O)O)c3cc(S(=O)(=O)O)cc(S(=O)(=O)O)c23)c2ccccc2n1 | > 100 | –
52 | Cc1cc(C)nc(NS(=O)(=O)c2ccc(NC(=O)c3ccc4nc5ccccc5c(Nc5ccc(S(N)(=O)=O)cc5)c4c3)cc2)n1 | > 100 | –
53 | CC1(C(=O)O)CCC2(C)CCC3(C)C(=CC(=O)C4C5(C)CCC(O)C(C)(C)C5CCC43C)C2C1 (stereo unspecified) | 99.1 | –
54 | NS(=O)(=O)c1nnc(NC(=O)Nc2ccc(Cl)c(Cl)c2)s1 | 55.3 | –
55 | COC(=O)c1c(C)nc2c1cc(O)c1[nH]c(C)c(C)nc12 | > 100 | –
56 | Cn1c2ccc3cc2c(=S)c2cc(ccc21)OCCOCCOCCOCCOCCOCCO3 | > 10 | –
57 | O=[N+]([O-])c1cc(C=NC23CC4CC(CC(C4)C2)C3)ccc1Cl | 40.8 | –
58 | COc1cc(S(=O)(=O)Nc2nc(-c3ccc(N4C(=O)C(CC(=O)O)SC4c4cccs4)cc3)cs2)ccc1Cl (stereo unspecified) | 91.9 | –
59 | CCCCCC1=CC(=O)C1(Cl)Cl | > 52.2 | –
60 | CC(=O)N(C(=O)CC(=O)N1N=C(c2ccccc2)C(N=Nc2ccccc2[N+](=O)[O-])C1=O)c1ccc(Cl)cc1 (stereo unspecified) | > 10 | –
61 | Oc1ccccc1CNCc1nc2ccccc2[nH]1 | > 100 | –
62 | COc1ncc(/C=C2\OC(=O)c3ccccc32)c(OC)n1 | > 100 | –
63 | CC(=O)Nn1c(=S)[nH]c2ccccc21 | > 100 | –
64 | C[C@]12CCC3C4=C(CCC3C1CCC2=O)C(=O)[C@H]1O[C@H]1C4=O (stereo partly specified) | 2.78 | –
65 | CCCCOC(=O)Nc1ccc(S(=O)(=O)Nc2ccccc2Cl)cc1 | 87.1 | –
66 | O=[N+]([O-])c1ccc(Cl)cc1N/N=C/c1ccnc2ccccc12 | > 100 | –

Row | SMILES | TGI [µM] | GI50 [µM]
67 | CC(C)c1cc2c(cc1S(=O)(=O)O)[C@@]1(C)CCC[C@@](C)(C(=O)O)C1CC2 (stereo partly specified) | > 100 | –
68 | N#CC(Cc1ccccc1)N(CCC1=CCCCC1)C(c1ccccc1)c1ccccc1 (stereo unspecified) | > 100 | –
69 | C/C(=C\CBr)CCC(Br)C(C)(C)Br (stereo unspecified) | > 100 | –
70 | C#CCn1c(=O)c2ccccc2n(CC#C)c1=O | > 10 | –
71 | [N-]=[N+]=NC(c1ccccc1)(c1ccccc1)c1ccccc1 | 38.4 | –
72 | CC(=O)c1c2c(c3ccccc3c1O)O[C@@H]1OCC[C@H]21 | > 100 | –
73 | C(=C(c1ccc(OC2CCCCO2)cc1)c1ccc(OC2CCCCO2)cc1)c1ccccc1 (stereo unspecified) | 2.14 | –
74 | CC(=O)Oc1cccc2c1C(=O)CCCC2 | > 100 | –
75 | O=C(c1ccccn1)C1(N2CCCCC2)CCCCC1 | > 100 | –
76 | CCN(CC)C(=S)N/N=C/c1cc([N+](=O)[O-])ccc1O | 39.4 | –
77 | COc1ccc(CN2C(=O)/C(=C\c3cc(OC)c(OC)c(OC)c3)c3ccccc32)cc1 | 7.31 | 2.06
78 | N[C@@H](CCC(=O)NCP(=O)(O)O)C(=O)O | > 100 | –
79 | CCC(=O)NC(Nc1cc(C)on1)(C(F)(F)F)C(F)(F)F | > 100 | –
80 | CCC(=O)NCC1CCCN2CCCCC12 (stereo unspecified) | > 100 | –
81 | Nc1nc(-c2ccccc2)nc2oc(-c3cccs3)nc12 | > 100 | –
82 | S=C(N/N=C(/c1ccccc1)c1ccccn1)N(Cc1ccccn1)Cc1ccccn1 | 2.82 | –
83 | Cc1oc2c(cc(O)c3cc(O)ccc32)c2cccc1-2 | > 100 | –
84 | O=C(OCc1ccccc1)N1CCNCCN(C(=O)OCc2ccccc2)CCNCC1 | 32.7 | –
85 | O=C(Cc1ccc(O)c(O)c1)NCc1c[nH]c2ccccc12 | > 100 | –
86 | COc1ccc(-n2c(C)nc3ccc(NC(=S)Nc4ccccc4)cc3c2=O)cc1 | > 100 | –
87 | O=C(NCc1ccccc1)c1n[nH][nH]c1=O | > 100 | –
88 | COc1cccc(C2SC(N)=Nc3c2c(C)nn3C(=O)c2ccccc2O)c1 (stereo unspecified) | > 10 | –

Test system: 786-0 renal
Experiment: inhibition of tumour cell growth, NCI panel, 48 h

Row | SMILES | TGI [µM]
89 | CCOC(=O)c1c(CN2CCCC2)n(-c2ccccc2)c2cc(Br)c(O)cc12 | 31
90 | COc1cccc(Nc2nc(-c3cccs3)nc3cc(OC)c(OC)cc23)c1 | 46
91 | Nn1c(-c2ccccc2)n[nH]c1=O | > 100
92 | Nn1c(Nc2ccc(S(=O)(=O)Nc3ncccn3)cc2)nnc(/C=C/c2c(O)ccc3ccccc23)c1=O | 73.6
93 | Cc1cc(-c2nc3ccc(F)cc3s2)ccc1NC(=O)[C@H](C)N | 16.9
94 | C=CC1(CC/C(=C\[N+](=O)[O-])c2ccc(OC)c(OC)c2)OCC(C)(C)CO1 | 37.9
95 | Cc1cc(Nc2ccc(S(=O)(=O)O)c3cc(S(=O)(=O)O)cc(S(=O)(=O)O)c23)c2ccccc2n1 | > 100
96 | Cc1cc(C)nc(NS(=O)(=O)c2ccc(NC(=O)c3ccc4nc5ccccc5c(Nc5ccc(S(N)(=O)=O)cc5)c4c3)cc2)n1 | > 100
97 | CC1(C(=O)O)CCC2(C)CCC3(C)C(=CC(=O)C4C5(C)CCC(O)C(C)(C)C5CCC43C)C2C1 (stereo unspecified) | > 100
98 | NS(=O)(=O)c1nnc(NC(=O)Nc2ccc(Cl)c(Cl)c2)s1 | 67.5
99 | COC(=O)c1c(C)nc2c1cc(O)c1[nH]c(C)c(C)nc12 | > 100
100 | Cn1c2ccc3cc2c(=S)c2cc(ccc21)OCCOCCOCCOCCOCCOCCO3 | > 10
101 | O=[N+]([O-])c1cc(C=NC23CC4CC(CC(C4)C2)C3)ccc1Cl | 41.2
102 | COc1cc(S(=O)(=O)Nc2nc(-c3ccc(N4C(=O)C(CC(=O)O)SC4c4cccs4)cc3)cs2)ccc1Cl (stereo unspecified) | > 100
103 | CCCCCC1=CC(=O)C1(Cl)Cl | 35.8
104 | CC(=O)N(C(=O)CC(=O)N1N=C(c2ccccc2)C(N=Nc2ccccc2[N+](=O)[O-])C1=O)c1ccc(Cl)cc1 (stereo unspecified) | > 10
